# Experiments:
# Format in all cases: in vivo
# [1] = tested on: blackgrass (Alopecurus myosuroides); test: Preemergence herbicidal activity; conditions: 35 g/Ha; scored after 3 weeks; 0 no injury, 100 complete kill or no germination
# Method in brief: (§1)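 Ratings are percent injury assessed visually three weeks after treatment, comparing emerged treated plants with untreated ones; 0 indicates no effect and 100 indicates plants killed or not germinated. Compound was sprayed on the soil of seeded pots at up to 4.48 kg/ha.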
# [2] = tested on: cocklebur (Xanthium strumarium); test: Preemergence herbicidal activity; conditions: 35 g/Ha; scored after 3 weeks; 0 no injury, 100 complete kill or no germination
# Method in brief: as §1
# [3] = tested on: velvetleaf (Abutilion theophrasti); test: Preemergence herbicidal activity; conditions: 35 g/Ha; scored after 3 weeks; 0 no injury, 100 complete kill or no germination
# Method in brief: as §1
# [4] = tested on: pigweed (Amaranthus retroflexus); test: Preemergence herbicidal activity; conditions: 35 g/Ha; scored after 3 weeks; 0 no injury, 100 complete kill or no germination
# Method in brief: as §1
# [5] = tested on: morningglory (Ipomoea hederacea); test: Preemergence herbicidal activity; conditions: 35 g/Ha; scored after 3 weeks; 0 no injury, 100 complete kill or no germination
# Method in brief: as §1
# [6] = tested on: barnyardgrass (Echinochloa crus-galli); test: Preemergence herbicidal activity; conditions: 35 g/Ha; scored after 3 weeks; 0 no injury, 100 complete kill or no germination
# Method in brief: as §1
# [7] = tested on: giant foxtail (Setaria faberi); test: Preemergence herbicidal activity; conditions: 35 g/Ha; scored after 3 weeks; 0 no injury, 100 complete kill or no germination
# Method in brief: as §1
# [8] = tested on: Rox orange sorghum (Sorghum bicolor); test: Preemergence herbicidal activity; conditions: 35 g/Ha; scored after 3 weeks; 0 no injury, 100 complete kill or no germination
# Method in brief: as §1
# [9] = tested on: wild oats (Avena fatua); test: Preemergence herbicidal activity; conditions: 35 g/Ha; scored after 3 weeks; 0 no injury, 100 complete kill or no germination
# Method in brief: as §1
# [10] = tested on: lambsquarters (Chenopodium album); test: Preemergence herbicidal activity; conditions: 35 g/Ha; scored after 3 weeks; 0 no injury, 100 complete kill or no germination
# Method in brief: as §1
# [11] = tested on: crabgrass (Digitaria sanguinalis); test: Preemergence herbicidal activity; conditions: 35 g/Ha; scored after 3 weeks; 0 no injury, 100 complete kill or no germination
# Method in brief: as §1
# [12] = tested on: wild poinsettia (Euphorbia heterophylla); test: Preemergence herbicidal activity; conditions: 35 g/Ha; scored after 3 weeks; 0 no injury, 100 complete kill or no germination
# Method in brief: as §1
# [13] = tested on: blackgrass (Alopecurus myosuroides); test: Postemergence herbicidal activity; conditions: 15.6 ppm; scored after 2 weeks; 0 no injury, 100 complete kill
# Method in brief: (§2)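 Visual injury rating (0 = no injury, 100% = complete kill) taken 2 weeks post-application relative to untreated controls. Compounds applied as foliar spray in an acetone/DMSO-based aqueous carrier with crop oil and surfactant to plants at first or second true leaf stage; 1 ppm corresponds to about 1 g/ha.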
# [14] = tested on: viola (Viola tricolor); test: Postemergence herbicidal activity; conditions: 15.6 ppm; scored after 2 weeks; 0 no injury, 100 complete kill
# Method in brief: as §2
# [15] = tested on: wild buckwheat (Polygonum convolvulus); test: Postemergence herbicidal activity; conditions: 15.6 ppm; scored after 2 weeks; 0 no injury, 100 complete kill
# Method in brief: as §2
# [16] = tested on: cocklebur (Xanthium strumarium); test: Postemergence herbicidal activity; conditions: 15.6 ppm; scored after 2 weeks; 0 no injury, 100 complete kill
# Method in brief: as §2
# [17] = tested on: velvetleaf (Abutilion theophrasti); test: Postemergence herbicidal activity; conditions: 15.6 ppm; scored after 2 weeks; 0 no injury, 100 complete kill
# Method in brief: as §2
# [18] = tested on: pigweed (Amaranthus retroflexus); test: Postemergence herbicidal activity; conditions: 15.6 ppm; scored after 2 weeks; 0 no injury, 100 complete kill
# Method in brief: as §2
# [19] = tested on: morningglory (Ipomoea hederacea); test: Postemergence herbicidal activity; conditions: 15.6 ppm; scored after 2 weeks; 0 no injury, 100 complete kill
# Method in brief: as §2
# [20] = tested on: giant foxtail (Setaria faberi); test: Postemergence herbicidal activity; conditions: 15.6 ppm; scored after 2 weeks; 0 no injury, 100 complete kill
# Method in brief: as §2
# [21] = tested on: Rox orange sorghum (Sorghum bicolor); test: Postemergence herbicidal activity; conditions: 15.6 ppm; scored after 2 weeks; 0 no injury, 100 complete kill
# Method in brief: as §2
# [22] = tested on: wild oats (Avena fatua); test: Postemergence herbicidal activity; conditions: 15.6 ppm; scored after 2 weeks; 0 no injury, 100 complete kill
# Method in brief: as §2
# [23] = tested on: lambsquarters (Chenopodium album); test: Postemergence herbicidal activity; conditions: 15.6 ppm; scored after 2 weeks; 0 no injury, 100 complete kill
# Method in brief: as §2
# [24] = tested on: chickweed (Stellaria media); test: Postemergence herbicidal activity; conditions: 15.6 ppm; scored after 2 weeks; 0 no injury, 100 complete kill
# Method in brief: as §2
compound,measurement,setting,value
CCOc1nccc(C(F)(F)F)c1S(=O)(=O)Nc1nc2nc(OC)cc(OC)n2n1 [Compound 19],Preemergence herbicidal activity ALOMY,[1],100%
same,Preemergence herbicidal activity XANST,[2],85%
same,Preemergence herbicidal activity ABUTH,[3],80%
same,Preemergence herbicidal activity AMARE,[4],100%
same,Preemergence herbicidal activity IPOHE,[5],50%
same,Preemergence herbicidal activity ECHCG,[6],70%
same,Preemergence herbicidal activity SETFA,[7],30%
same,Preemergence herbicidal activity SORBI,[8],60%
same,Preemergence herbicidal activity AVEFA,[9],60%
same,Preemergence herbicidal activity CHEAL,[10],100%
same,Preemergence herbicidal activity DIGSA,[11],80%
same,Preemergence herbicidal activity EPHHL,[12],50%
same,Postemergence herbicidal activity ALOMY,[13],80%
same,Postemergence herbicidal activity VIOTR,[14],90%
same,Postemergence herbicidal activity POLCO,[15],90%
same,Postemergence herbicidal activity XANST,[16],90%
same,Postemergence herbicidal activity ABUTH,[17],75%
same,Postemergence herbicidal activity AMARE,[18],90%
same,Postemergence herbicidal activity IPOHE,[19],75%
same,Postemergence herbicidal activity SETFA,[20],60%
same,Postemergence herbicidal activity SORBI,[21],50%
same,Postemergence herbicidal activity AVEFA,[22],50%
same,Postemergence herbicidal activity CHEAL,[23],95%
same,Postemergence herbicidal activity STEME,[24],95%

# From patent US6559101B2, “N- (5, 7-dimethoxy [1, 2, 4] triazolo [1, 5-a] pyrimidin-2-yl) arylsulfonamide compounds and their use as herbicides” (Dow AgroSciences LLC, priority 2000, dated 2003)
